Laboratory results from ChEMBL document CHEMBL5724914, “Linking interpersonal differences in gut microbiota composition and drug biotransformation activity” (2024).

How the values were obtained:
[1] = (§1) The drug is tested on Z-030 corresponding to mouse gut metagenome with ENA study accession number: PRJEB37062 and ENA sample accession number: ERS12561829 for biotransformation under anaerobic condition. The drug concentrations were measured over 9 timepoints collected between 0 and 24 hours of incubation by liquid-chromatography-coupled mass spectrometry (LC–MS); details: 2 µM
[2] = as §1, with “Z-029” for “Z-030”, “rat” for “mouse”, “ERS12561828” for “ERS12561829”; details: 2 µM
[3] = as §1, with “Z-019” for “Z-030”, “rat” for “mouse”, “ERS12561818” for “ERS12561829”; details: 2 µM
[4] = as §1, with “Z-012” for “Z-030”, “to” for “to mouse gut”, “ERS12561812” for “ERS12561829”; details: 2 µM
[5] = as §1, with “WLS-310” for “Z-030”, “human” for “mouse”, “ERS12561785” for “ERS12561829”; details: 2 µM
[6] = as §1, with “WLS-090” for “Z-030”, “human” for “mouse”, “ERS12561753” for “ERS12561829”; details: 2 µM
[7] = as §1, with “WLS-069” for “Z-030”, “human” for “mouse”, “ERS12561748” for “ERS12561829”; details: 2 µM
[8] = as §1, with “WLS-039” for “Z-030”, “human” for “mouse”, “ERS12561746” for “ERS12561829”; details: 2 µM
[9] = human gut metagenome, 24 h, 2 µM
[10] = human gut metagenome, 24 h, 2 µM; remark: listed apart in the source
[11] = human gut metagenome, 24 h, 2 µM; remark: listed apart in the source
[12] = human gut metagenome, 24 h, 2 µM; remark: listed apart in the source
[13] = human gut metagenome, 24 h, 2 µM; remark: listed apart in the source
[14] = human gut metagenome, 24 h, 2 µM; remark: listed apart in the source
[15] = human gut metagenome, 24 h, 2 µM; remark: listed apart in the source
[16] = human gut metagenome, 24 h, 2 µM; remark: listed apart in the source
[17] = human gut metagenome, 24 h, 2 µM; remark: listed apart in the source
[18] = human gut metagenome, 24 h, 2 µM; remark: listed apart in the source
[19] = human gut metagenome, 24 h, 2 µM; remark: listed apart in the source
[20] = human gut metagenome, 24 h, 2 µM; remark: listed apart in the source
Also: call rule not given here.

OC(c1cc(C(F)(F)F)nc2c(C(F)(F)F)cccc12)C1CCCCN1 (stereo not given) [MEFLOQUINE]
Bacterial Biotransformation [1]: Compound NOT metabolized | Bacterial Biotransformation [2]: Compound metabolized | Bacterial Biotransformation [3]: Compound NOT metabolized | Bacterial Biotransformation [4]: Compound NOT metabolized | Bacterial Biotransformation [5]: Compound metabolized | Bacterial Biotransformation [6]: Compound metabolized | Bacterial Biotransformation [7]: Compound metabolized | Bacterial Biotransformation [8]: Compound metabolized | Bacterial Biotransformation [9]: Compound metabolized | Bacterial Biotransformation [10]: Compound metabolized | Bacterial Biotransformation [11]: Compound NOT metabolized | Bacterial Biotransformation [12]: Compound metabolized | Bacterial Biotransformation [13]: Compound metabolized | Bacterial Biotransformation [14]: Compound metabolized | Bacterial Biotransformation [15]: Compound metabolized | Bacterial Biotransformation [16]: Compound metabolized | Bacterial Biotransformation [17]: Compound metabolized | Bacterial Biotransformation [18]: Compound metabolized | Bacterial Biotransformation [19]: Compound NOT metabolized | Bacterial Biotransformation [20]: Compound metabolized

CC(=O)O[C@]1(C(C)=O)CC[C@H]2[C@@H]3C=C(C)C4=CC(=O)CC[C@]4(C)[C@H]3CC[C@@]21C [MEGESTROL ACETATE]
Bacterial Biotransformation [1]: Compound NOT metabolized | Bacterial Biotransformation [2]: Compound NOT metabolized | Bacterial Biotransformation [3]: Compound NOT metabolized | Bacterial Biotransformation [4]: Compound metabolized | Bacterial Biotransformation [5]: Compound metabolized | Bacterial Biotransformation [6]: Compound metabolized | Bacterial Biotransformation [7]: Compound metabolized | Bacterial Biotransformation [8]: Compound metabolized | Bacterial Biotransformation [9]: Compound metabolized | Bacterial Biotransformation [10]: Compound metabolized | Bacterial Biotransformation [11]: Compound metabolized | Bacterial Biotransformation [12]: Compound metabolized | Bacterial Biotransformation [13]: Compound NOT metabolized | Bacterial Biotransformation [14]: Compound metabolized | Bacterial Biotransformation [15]: Compound metabolized | Bacterial Biotransformation [16]: Compound metabolized | Bacterial Biotransformation [17]: Compound metabolized | Bacterial Biotransformation [18]: Compound metabolized | Bacterial Biotransformation [19]: Compound metabolized | Bacterial Biotransformation [20]: Compound metabolized

CC12CC3CC(C)(C1)CC(N)(C3)C2 [MEMANTINE]
Bacterial Biotransformation [1]: Compound NOT metabolized | Bacterial Biotransformation [2]: Compound NOT metabolized | Bacterial Biotransformation [3]: Compound NOT metabolized | Bacterial Biotransformation [4]: Compound NOT metabolized | Bacterial Biotransformation [5]: Compound NOT metabolized | Bacterial Biotransformation [6]: Compound metabolized | Bacterial Biotransformation [7]: Compound NOT metabolized | Bacterial Biotransformation [8]: Compound metabolized | Bacterial Biotransformation [9]: Compound NOT metabolized | Bacterial Biotransformation [10]: Compound NOT metabolized | Bacterial Biotransformation [11]: Compound NOT metabolized | Bacterial Biotransformation [12]: Compound NOT metabolized | Bacterial Biotransformation [13]: Compound NOT metabolized | Bacterial Biotransformation [14]: Compound NOT metabolized | Bacterial Biotransformation [15]: Compound NOT metabolized | Bacterial Biotransformation [16]: Compound NOT metabolized | Bacterial Biotransformation [17]: Compound NOT metabolized | Bacterial Biotransformation [18]: Compound NOT metabolized | Bacterial Biotransformation [19]: Compound NOT metabolized | Bacterial Biotransformation [20]: Compound NOT metabolized

Cc1cc(C)cc(OCC2CNC(=O)O2)c1 (stereo not given) [METAXALONE]
Bacterial Biotransformation [1]: Compound NOT metabolized | Bacterial Biotransformation [2]: Compound NOT metabolized | Bacterial Biotransformation [3]: Compound NOT metabolized | Bacterial Biotransformation [4]: Compound NOT metabolized | Bacterial Biotransformation [5]: Compound metabolized | Bacterial Biotransformation [6]: Compound metabolized | Bacterial Biotransformation [7]: Compound metabolized | Bacterial Biotransformation [8]: Compound metabolized | Bacterial Biotransformation [9]: Compound NOT metabolized | Bacterial Biotransformation [10]: Compound NOT metabolized | Bacterial Biotransformation [11]: Compound metabolized | Bacterial Biotransformation [12]: Compound metabolized | Bacterial Biotransformation [13]: Compound NOT metabolized | Bacterial Biotransformation [14]: Compound metabolized | Bacterial Biotransformation [15]: Compound metabolized | Bacterial Biotransformation [16]: Compound metabolized | Bacterial Biotransformation [17]: Compound NOT metabolized | Bacterial Biotransformation [18]: Compound metabolized | Bacterial Biotransformation [19]: Compound NOT metabolized | Bacterial Biotransformation [20]: Compound metabolized
